Results taken from patent US12036312B2, “Non-aqueous topical compositions comprising a halogenated salicylanilide” (priority 2016, dated 2024).
Converted amounts (≈) assume the structure as drawn.

Tested on: S. aureus
Assay: MIC assay according to CLSI criteria, Example 2, S. aureus strains
Format: cell-based, Staphylococcus aureus
Conditions: Staphylococcus aureus
From the text: Chosen for its relevance regarding bacterial skin infections, the methicillin-resistant S. aureus (MRSA) 01 strain was used as the primary test microorganism. This strain is a community-acquired MRSA clinical isolate of USA 300 type, from a skin abscess.
Two-hundred-four other MRSA and methicillin-sensitive S. aureus strains, and 4 Streptococcus pyogenes strains, were also included in the study. These covered fusidic acid- and mupirocin-resistant strains, these two types of resistance being of clinical relevance.
Strains were conserved in Luria Bertani (LB) Broth (S. aureus) or Brain Heart Infusion (BHI) (S. pyogenes) supplemented with glycerol 15% (v/v) at −80° C., and reactivated by isolation on LB (S. aureus) or BHI (S. pyogenes) agar plates. Strains were cultivated in Mueller Hinton (MH) Broth-cation adjusted (S. aureus) or BHI (S. pyogenes). All strains were cultivated aerobically (microaerobically for S. pyogenes strains) at 37° C.
Bacterial cultures were stopped in their exponential growth phase and plates were inoculated with the approximate concentration of 5×10^5 cells per well. Plates were incubated at 37° C. for 18 hours (S. aureus) or 24 hours (S. pyogenes). Optical density at a wavelength of 600 nm was measured at the end of the incubation time.

CN[C@H](CC(C)C)C(=O)N[C@H]1C(=O)N[C@@H](CC(N)=O)C(=O)N[C@H]2C(=O)N[C@H]3C(=O)N[C@H](C(=O)N[C@H](C(=O)O)c4cc(O)cc(O)c4-c4cc3ccc4O)[C@H](O)c3ccc(c(Cl)c3)Oc3cc2cc(c3O[C@@H]2O[C@H](CO)[C@@H](O)[C@H](O)[C@H]2O[C@H]2C[C@](C)(N)[C@H](O)[C@H](C)O2)Oc2ccc(cc2Cl)[C@H]1O [Vancomycin, vancomycin]
MIC (ATCC29213, strain ATCC 29213): 1 µg/mL (≈ 0.69 µM) | MIC (MRSA, strain MRSA 01): 1 µg/mL (≈ 0.69 µM) | MIC (MRSA, strain MRSA 02): 2 µg/mL (≈ 1.38 µM) | MIC (MRSA, strain MRSA 03): 1 µg/mL (≈ 0.69 µM) | MIC (MRSA, strain MRSA 04): 2 µg/mL (≈ 1.38 µM) | MIC (MRSA, strain MRSA 05): 1 µg/mL (≈ 0.69 µM) | MIC (MRSA, strain MRSA 06): 2 µg/mL (≈ 1.38 µM) | MIC (MRSA, strain MRSA 07): 1 µg/mL (≈ 0.69 µM) | MIC (MRSA, strain MRSA 08): 1 µg/mL (≈ 0.69 µM) | MIC (MRSA, strain MRSA 09): 2 µg/mL (≈ 1.38 µM) | MIC (MRSA, strain MRSA 10): 1 µg/mL (≈ 0.69 µM) | MIC (MRSA, strain MRSA 11): 1 µg/mL (≈ 0.69 µM) | MIC (MRSA, strain MRSA 13): 1 µg/mL (≈ 0.69 µM) | MIC (MRSA, strain MRSA 14): 1 µg/mL (≈ 0.69 µM) | MIC (MRSA, strain MRSA 15): 2 µg/mL (≈ 1.38 µM) | MIC (MRSA, strain MRSA 16): 1 µg/mL (≈ 0.69 µM) | MIC (MRSA, strain MRSA 17): 2 µg/mL (≈ 1.38 µM) | MIC (MRSA, strain MRSA 18): 1 µg/mL (≈ 0.69 µM) | MIC (MRSA, strain MRSA 19): 1 µg/mL (≈ 0.69 µM) | MIC (MRSA, strain MRSA 20): 1 µg/mL (≈ 0.69 µM) | MIC (MRSA, strain MRSA 21): 1 µg/mL (≈ 0.69 µM) | MIC (MRSA, strain MRSA 22): 0.5 µg/mL (≈ 0.345 µM) | MIC (MRSA, strain MRSA 23): 1 µg/mL (≈ 0.69 µM) | MIC (MRSA, strain MRSA 24): 2 µg/mL (≈ 1.38 µM) | MIC (MRSA, strain MRSA 25): 1 µg/mL (≈ 0.69 µM) | MIC (MRSA, strain MRSA 26): 1 µg/mL (≈ 0.69 µM) | MIC (MRSA, strain MRSA 27): 1 µg/mL (≈ 0.69 µM) | MIC (MRSA, strain MRSA 27b): 1 µg/mL (≈ 0.69 µM) | MIC (MRSA, strain MRSA 28): 1 µg/mL (≈ 0.69 µM) | MIC (MRSA, strain MRSA 29): 1 µg/mL (≈ 0.69 µM) | MIC (MRSA, strain MRSA 30): 1 µg/mL (≈ 0.69 µM) | MIC (MRSA, strain MRSA 31): 1 µg/mL (≈ 0.69 µM) | MIC (MRSA, strain MRSA 32): 1 µg/mL (≈ 0.69 µM) | MIC (MRSA, strain MRSA 33): 1 µg/mL (≈ 0.69 µM) | MIC (MRSA, strain MRSA 34): 1 µg/mL (≈ 0.69 µM) | MIC (MRSA, strain MRSA 35): 1 µg/mL (≈ 0.69 µM) | MIC (MRSA, strain MRSA 36): 1 µg/mL (≈ 0.69 µM) | MIC (MRSA, strain MRSA 37): 1 µg/mL (≈ 0.69 µM) | MIC (MRSA, strain MRSA 38): 1 µg/mL (≈ 0.69 µM) | MIC (MRSA, strain MRSA 39): 1 µg/mL (≈ 0.69 µM) | MIC (MRSA, strain MRSA 40): 1 µg/mL (≈ 0.69 µM) | MIC (MRSA, strain MRSA 41): 1 µg/mL (≈ 0.69 µM) | MIC (MRSA, strain MRSA 42): 1 µg/mL (≈ 0.69 µM) | MIC (MRSA, strain MRSA 43): 1 µg/mL (≈ 0.69 µM) | MIC (MRSA, strain MRSA 44): 1 µg/mL (≈ 0.69 µM) | MIC (MRSA, strain MRSA 45): 1 µg/mL (≈ 0.69 µM) | MIC (MRSA, strain MRSA 46): 1 µg/mL (≈ 0.69 µM) | MIC (MRSA, strain MRSA 47): 0.5 µg/mL (≈ 0.345 µM) | MIC (MRSA, strain MRSA 48): 0.5 µg/mL (≈ 0.345 µM) | MIC (MRSA, strain MRSA 49): 2 µg/mL (≈ 1.38 µM) | MIC (MRSA, strain MRSA 50): 1 µg/mL (≈ 0.69 µM) | MIC (MRSA, strain MRSA 51): 1 µg/mL (≈ 0.69 µM) | MIC (MRSA, strain MRSA 52): 1 µg/mL (≈ 0.69 µM) | MIC (MRSA, strain MRSA 53): 1 µg/mL (≈ 0.69 µM) | MIC (MRSA, strain MRSA 54): 2 µg/mL (≈ 1.38 µM) | MIC (MRSA, strain MRSA 55): 0.5 µg/mL (≈ 0.345 µM) | MIC (MRSA, strain MRSA 56): 1 µg/mL (≈ 0.69 µM) | MIC (MRSA, strain MRSA 57): 1 µg/mL (≈ 0.69 µM) | MIC (MRSA, strain MRSA 58): 1 µg/mL (≈ 0.69 µM) | MIC (MRSA, strain MRSA 59): 1 µg/mL (≈ 0.69 µM) | MIC (MRSA, strain MRSA 60): 0.5 µg/mL (≈ 0.345 µM) | MIC (MRSA, strain MRSA 61): 2 µg/mL (≈ 1.38 µM) | MIC (MRSA, strain MRSA 62): 2 µg/mL (≈ 1.38 µM) | MIC (MRSA, strain MRSA 63): 1 µg/mL (≈ 0.69 µM) | MIC (MRSA, strain MRSA 64): 1 µg/mL (≈ 0.69 µM) | MIC (MRSA, strain MRSA 65): 1 µg/mL (≈ 0.69 µM) | MIC (MRSA, strain MRSA 66): 1 µg/mL (≈ 0.69 µM) | MIC (MRSA, strain MRSA 67): 1 µg/mL (≈ 0.69 µM) | MIC (MRSA, strain MRSA 68): 1 µg/mL (≈ 0.69 µM) | MIC (MRSA, strain MRSA 69): 1 µg/mL (≈ 0.69 µM) | MIC (MRSA, strain MRSA 70): 1 µg/mL (≈ 0.69 µM) | MIC (MRSA, strain MRSA 71): 1 µg/mL (≈ 0.69 µM) | MIC (MRSA, strain MRSA 72): 1 µg/mL (≈ 0.69 µM) | MIC (MRSA, strain MRSA 73): 1 µg/mL (≈ 0.69 µM) | MIC (MRSA, strain MRSA 74): 1 µg/mL (≈ 0.69 µM) | MIC (MRSA, strain MRSA 75): 1 µg/mL (≈ 0.69 µM) | MIC (MRSA, strain MRSA 76): 1 µg/mL (≈ 0.69 µM) | MIC (MRSA, strain MRSA 77): 2 µg/mL (≈ 1.38 µM) | MIC (MRSA, strain MRSA 78): 1 µg/mL (≈ 0.69 µM) | MIC (MRSA, strain MRSA 79): 1 µg/mL (≈ 0.69 µM) | MIC (MRSA, strain MRSA 80): 1 µg/mL (≈ 0.69 µM) | MIC (MRSA, strain MRSA 81): 1 µg/mL (≈ 0.69 µM) | MIC (MRSA, strain MRSA 82): 2 µg/mL (≈ 1.38 µM) | MIC (MRSA, strain MRSA 83): 1 µg/mL (≈ 0.69 µM) | MIC (MRSA, strain MRSA 84): 2 µg/mL (≈ 1.38 µM) | MIC (MRSA, strain MRSA 85): 1 µg/mL (≈ 0.69 µM) | MIC (MRSA, strain MRSA 86): 2 µg/mL (≈ 1.38 µM) | MIC (MRSA, strain MRSA 87): 1 µg/mL (≈ 0.69 µM) | MIC (MRSA, strain MRSA 88): 1 µg/mL (≈ 0.69 µM) | MIC (MRSA, strain MRSA 89): 1 µg/mL (≈ 0.69 µM) | MIC (MRSA, strain MRSA 90): 1 µg/mL (≈ 0.69 µM) | MIC (MRSA, strain MRSA 91): 1 µg/mL (≈ 0.69 µM) | MIC (MRSA, strain MRSA 92): 1 µg/mL (≈ 0.69 µM) | MIC (MRSA, strain MRSA 93): 2 µg/mL (≈ 1.38 µM) | MIC (MRSA, strain MRSA 94): 2 µg/mL (≈ 1.38 µM) | MIC (MRSA, strain MRSA 95): 2 µg/mL (≈ 1.38 µM) | MIC (MRSA, strain MRSA 96): 1 µg/mL (≈ 0.69 µM) | MIC (MRSA, strain MRSA 97): 1 µg/mL (≈ 0.69 µM) | MIC (MRSA, strain MRSA 98): 1 µg/mL (≈ 0.69 µM) | MIC (MRSA, strain MRSA 99): 1 µg/mL (≈ 0.69 µM) | MIC (MRSA, strain MRSA 100): 1 µg/mL (≈ 0.69 µM) | MIC (MRSA, strain MRSA 101): 1 µg/mL (≈ 0.69 µM)
